Inconclusive results and toxic doses are left out. Rule for the calls: active = survival T/C of 150% or more; inactive = T/C below 125% in these data.
Tested on: BDF1 mice, P388 leukemia ip, median survival T/C
Test: NCI In Vivo Anticancer Drug Screen. Data for tumor model P388 Leukemia (intraperitoneal) in B6D2F1 (BDF1) mice
Settings: endpoint: median survival time, higher = longer survival
Outline: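 Reported as T/C, where T is the survival measurement in dosed animals and C the same measurement in vehicle controls.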

[1] = dose: 50.0 mg/kg/injection, schedule: Q01DX009 (ip), vehicle: saline with Tween-80
[2] = dose: 100.0 mg/kg/injection, schedule: Q01DX009 (ip), vehicle: saline with Tween-80
[3] = dose: 25.0 mg/kg/injection, schedule: Q04DX003 (ip), vehicle: saline with Tween-80
[4] = dose: 100.0 mg/kg/injection, schedule: Q04DX003 (ip), vehicle: saline with Tween-80
[5] = dose: 200.0 mg/kg/injection, schedule: Q04DX003 (ip), vehicle: saline with Tween-80
[6] = dose: 400.0 mg/kg/injection, schedule: Q04DX003 (ip), vehicle: saline with Tween-80
[7] = dose: 200.0 mg/kg/injection, schedule: Q01DX009 (ip), vehicle: saline with Tween-80
[8] = dose: 400.0 mg/kg/injection, schedule: Q01DX009 (ip), vehicle: saline with Tween-80
[9] = dose: 12.5 mg/kg/injection, schedule: Q01DX009 (ip), vehicle: saline
[10] = dose: 50.0 mg/kg/injection, schedule: Q01DX009 (ip), vehicle: saline
[11] = dose: 50.0 mg/kg/injection, schedule: Q01DX005 (ip), vehicle: saline with Tween-80
[12] = dose: 12.5 mg/kg/injection, schedule: Q04DX003 (ip), vehicle: saline with Tween-80
[13] = dose: 25.0 mg/kg/injection, schedule: Q01DX009 (ip), vehicle: saline with Tween-80
[14] = dose: 100.0 mg/kg/injection, schedule: Q04DX003 (ip), vehicle: Klucel (hydroxypropylcellulose) (HPC)
[15] = dose: 200.0 mg/kg/injection, schedule: Q04DX003 (ip), vehicle: Klucel (hydroxypropylcellulose) (HPC)
[16] = dose: 400.0 mg/kg/injection, schedule: Q04DX003 (ip), vehicle: Klucel (hydroxypropylcellulose) (HPC)
[17] = dose: 100.0 mg/kg/injection, schedule: Q04DX003 (ip), vehicle: saline
[18] = dose: 200.0 mg/kg/injection, schedule: Q04DX003 (ip), vehicle: saline
[19] = dose: 100.0 mg/kg/injection, schedule: Q01DX001 (ip), vehicle: Klucel (hydroxypropylcellulose) (HPC)
[20] = dose: 100.0 mg/kg/injection, schedule: Q01DX009 (ip), vehicle: Klucel (hydroxypropylcellulose) (HPC)
[21] = dose: 200.0 mg/kg/injection, schedule: Q01DX001 (ip), vehicle: Klucel (hydroxypropylcellulose) (HPC)
[22] = dose: 200.0 mg/kg/injection, schedule: Q01DX009 (ip), vehicle: Klucel (hydroxypropylcellulose) (HPC)
[23] = dose: 400.0 mg/kg/injection, schedule: Q01DX001 (ip), vehicle: Klucel (hydroxypropylcellulose) (HPC)
[24] = dose: 400.0 mg/kg/injection, schedule: Q01DX009 (ip), vehicle: Klucel (hydroxypropylcellulose) (HPC)

Measured: T/C

O=C(NNc1ccccc1)C12CC3CC(CC(C3)C1)C2
inactive: [1] 96 % of control | [2] 91 % of control

COC(OC)c1[nH]c(=S)[nH]c(=O)c1Cc1cc([N+](=O)[O-])ccc1O
inactive: [3] 104 % of control | dose: 50.0 mg/kg/injection, schedule: Q04DX003 (ip), vehicle: saline with Tween-80 108 % of control | [4] 95 % of control | [5] 104 % of control | [6] 90 % of control

N#[N+]N=c1c(=NN=[N-])c(=O)c2ccccc2c1=O
inactive: dose: 3.0 mg/kg/injection, schedule: Q01DX009 (ip), vehicle: saline with Tween-80 90 % of control | dose: 6.0 mg/kg/injection, schedule: Q01DX009 (ip), vehicle: saline with Tween-80 87 % of control | dose: 12.0 mg/kg/injection, schedule: Q01DX009 (ip), vehicle: saline with Tween-80 95 % of control

CCCCCCC(=O)/C=C/c1ccccc1Cl
inactive: [2] 102 % of control | [7] 118 % of control | [8] 93 % of control

CC1C[N-]CC(C)C1.CC1C[N-]CC(C)C1.[Cl][Pt+2]([Cl])([Cl])[Cl] (stereo not drawn)
inactive: dose: 1.56 mg/kg/injection, schedule: Q01DX009 (ip), vehicle: saline 95 % of control | dose: 3.12 mg/kg/injection, schedule: Q01DX009 (ip), vehicle: saline 114 % of control | dose: 6.25 mg/kg/injection, schedule: Q01DX009 (ip), vehicle: saline 93 % of control | [9] 114 % of control | [10] 107 % of control

CCSC1(SCC)C(=O)OC2=C(CCCCCC2)C1N(C)C (stereo not drawn)
inactive: [1] 96 % of control | [2] 99 % of control | [7] 99 % of control

O=C1CN(C2CCCCC2)CC(=O)N2C(c3ccccc3)CCCN12 (stereo not drawn)
inactive: [11] 97 % of control | dose: 100.0 mg/kg/injection, schedule: Q01DX005 (ip), vehicle: saline with Tween-80 103 % of control | dose: 200.0 mg/kg/injection, schedule: Q01DX005 (ip), vehicle: saline with Tween-80 118 % of control

CN(C)CCCNc1nc(NCCCN(C)C)c2nc(-c3ccccc3)c(-c3ccccc3)nc2n1
inactive: [11] 104 % of control

Cc1ccc2c(ccc3c[n+]4ccccc4c(C)c32)c1
inactive: [12] 113 % of control | [3] 118 % of control | dose: 33.0 mg/kg/injection, schedule: Q04DX003 (ip), vehicle: saline with Tween-80 122 % of control

Cc1nc(Br)c2cnccn12
inactive: [9] 118 % of control | dose: 25.0 mg/kg/injection, schedule: Q01DX009 (ip), vehicle: saline 109 % of control

Cc1c2cnccc2c(C)c2c1c1ccccc1n2CCNCCO
inactive: dose: 0.44 mg/kg/injection, schedule: Q04DX003 (ip), vehicle: saline 118 % of control | dose: 1.5 mg/kg/injection, schedule: Q04DX003 (ip), vehicle: saline 109 % of control | [4] 118 % of control | dose: 150.0 mg/kg/injection, schedule: Q04DX003 (ip), vehicle: saline with Tween-80 90 % of control

c1cc[c]([Pb]([c]2ccccc2)[c]2ccccc2)cc1.c1cc[c]([Pb]([c]2ccccc2)[c]2ccccc2)cc1
inactive: dose: 3.13 mg/kg/injection, schedule: Q01DX009 (ip), vehicle: saline with Tween-80 109 % of control | dose: 6.25 mg/kg/injection, schedule: Q01DX009 (ip), vehicle: saline with Tween-80 104 % of control | dose: 12.5 mg/kg/injection, schedule: Q01DX009 (ip), vehicle: saline with Tween-80 101 % of control | [13] 104 % of control

Nc1ccccc1/C=C(\C(=O)O)c1cccc(Cl)c1
inactive: [14] 95 % of control | [15] 104 % of control | [16] 100 % of control

COc1ccc(C2(C(=O)O)CC2)cc1
inactive: [2] 111 % of control | [4] 109 % of control | [7] 100 % of control | [5] 109 % of control | [8] 96 % of control | [6] 113 % of control

O=C(c1ccccc1)C(O)(CC(c1ccccc1)[P+](c1ccccc1)(c1ccccc1)c1ccccc1)c1ccccc1 (stereo not drawn)
inactive: dose: 0.87 mg/kg/injection, schedule: Q01DX009 (ip), vehicle: saline 108 % of control | dose: 3.12 mg/kg/injection, schedule: Q01DX009 (ip), vehicle: Klucel (hydroxypropylcellulose) (HPC) 122 % of control | dose: 3.5 mg/kg/injection, schedule: Q01DX009 (ip), vehicle: saline 120 % of control | dose: 6.25 mg/kg/injection, schedule: Q01DX009 (ip), vehicle: Klucel (hydroxypropylcellulose) (HPC) 113 % of control | dose: 6.25 mg/kg/injection, schedule: Q04DX003 (ip), vehicle: saline with Tween-80 109 % of control | dose: 12.5 mg/kg/injection, schedule: Q04DX003 (ip), vehicle: Klucel (hydroxypropylcellulose) (HPC) 104 % of control | [12] 118 % of control

CN1C(=O)NNC(=O)c2ccccc21
inactive: [1] 106 % of control | [2] 100 % of control | [7] 97 % of control

O=C(O)c1ccc2cc(O)ccc2c1
inactive: dose: 50.0 mg/kg/injection, schedule: Q01DX001 (ip), vehicle: saline with Tween-80 100 % of control | [10] 116 % of control | dose: 50.0 mg/kg/injection, schedule: Q04DX003 (ip), vehicle: saline 109 % of control | dose: 100.0 mg/kg/injection, schedule: Q01DX001 (ip), vehicle: saline with Tween-80 113 % of control | dose: 100.0 mg/kg/injection, schedule: Q01DX009 (ip), vehicle: saline 116 % of control | [17] 109 % of control | dose: 200.0 mg/kg/injection, schedule: Q01DX001 (ip), vehicle: saline with Tween-80 100 % of control | dose: 200.0 mg/kg/injection, schedule: Q01DX009 (ip), vehicle: saline 104 % of control | [18] 100 % of control

COc1ccc2c(c1)CCC(=O)O2
inactive: dose: 100.0 mg/kg/injection, schedule: Q04DX003 (ip), vehicle: saline sonified 91 % of control | dose: 200.0 mg/kg/injection, schedule: Q04DX003 (ip), vehicle: saline sonified 95 % of control | dose: 400.0 mg/kg/injection, schedule: Q04DX003 (ip), vehicle: saline sonified 100 % of control

CC(CN1c2ccccc2Sc2ccccc21)N(C)C (stereo not drawn)
inactive: dose: 18.75 mg/kg/injection, schedule: Q01DX009 (ip), vehicle: saline 100 % of control | dose: 37.5 mg/kg/injection, schedule: Q04DX003 (ip), vehicle: saline 121 % of control | dose: 75.0 mg/kg/injection, schedule: Q04DX003 (ip), vehicle: saline 117 % of control | dose: 150.0 mg/kg/injection, schedule: Q04DX003 (ip), vehicle: saline 95 % of control

CC1(C)OC(=O)C(=Cc2c(Cl)cccc2Cl)C(=O)O1
inactive: [19] 109 % of control | [20] 87 % of control | [21] 104 % of control | [22] 104 % of control | [23] 109 % of control | [24] 100 % of control

O=C(Oc1ccc(-c2ccc(Br)cc2)cc1)c1ccco1
inactive: [1] 90 % of control | [2] 90 % of control

OCCN1CCNC1=S
inactive: [17] 95 % of control | [18] 91 % of control | dose: 400.0 mg/kg/injection, schedule: Q04DX003 (ip), vehicle: saline 91 % of control

CCS(=O)(=O)OC1CCCCCCC1NC(=O)c1ccccc1 (stereo not drawn)
inactive: [13] 95 % of control | [1] 109 % of control | [2] 104 % of control

O=[N+]([O-])c1cc([N+](=O)[O-])c2ccccc2c1NS(=O)(=O)c1ccc(Cl)c(Cl)c1
inactive: [1] 92 % of control | [2] 111 % of control

CC(=O)c1cccc(N)c1
inactive: [19] 104 % of control | [20] 100 % of control | [14] 100 % of control | [21] 100 % of control | [22] 91 % of control | [15] 109 % of control | [23] 113 % of control | [24] 95 % of control | [16] 109 % of control

From PubChem BioAssay AID328 (DTP/NCI, 2004)
